Measurements reported in ChEMBL document CHEMBL3997804, “Evaluation of a series of 2-napthamide derivatives as inhibitors of the drug efflux pump AcrB for the reversal of antimicrobial resistance” (Bioorg Med Chem Lett, 2017).
Active and inactive are the calls of the source. No cut-off for these calls is given here.

Key:
Escherichia coli [1] = assay: Effect on rifampicin-induced antibacterial activity against AcrB-deficient Escherichia coli BW25113 assessed as rifampicin MIC at 128 ug/ml after 18 hrs by checkerboard method (reference value: 16 ug/ml); type: functional; conditions: BW25113, 18 h
Escherichia coli [2] = assay: Growth inhibition of wild-type drug-resistant Escherichia coli BW25113 after 18 hrs by resazurin dye based broth microdilution method
Escherichia coli [3] = assay: Growth inhibition of drug-sensitive AcrB-deficient Escherichia coli BW25113 at 1024 ug/ml after 18 hrs by resazurin dye based broth microdilution method
Escherichia coli [4] = assay: Effect on rifampicin-induced antibacterial activity against wild-type drug resistant Escherichia coli BW25113 assessed as rifampicin MIC at 256 ug/ml after 18 hrs by checkerboard method (reference value: 16 ug/ml); type: functional; conditions: BW25113, 18 h
Escherichia coli [5] = assay: Potentiation of chloramphenicol-induced antibacterial activity against AcrB-deficient Escherichia coli BW25113 assessed as chloramphenicol MIC at 256 ug/ml after 18 hrs by checkerboard method (reference value: 2 ug/ml); type: functional; conditions: BW25113, 18 h
Escherichia coli [6] = assay: Effect on rifampicin-induced antibacterial activity against AcrB-deficient Escherichia coli BW25113 assessed as rifampicin MIC at 256 ug/ml after 18 hrs by checkerboard method (reference value: 16 ug/ml); type: functional; conditions: BW25113, 18 h
Escherichia coli [7] = assay: Effect on rifampicin-induced antibacterial activity against AcrB-deficient Escherichia coli BW25113 assessed as rifampicin MIC at 512 ug/ml after 18 hrs by checkerboard method (reference value: 16 ug/ml); type: functional; conditions: BW25113, 18 h
Escherichia coli BW25113 [8] = assay: Inhibition of AcrB in wild-type drug resistant Escherichia coli BW25113 assessed as potentiation of tetraphenyl phosphonium chloride-induced antibacterial activity by measuring tetraphenyl phosphonium chloride MIC at 128 ug/ml after 18 hrs by checkerboard method (reference value: 1024 ug/ml)
Escherichia coli [9] = assay: Potentiation of chloramphenicol-induced antibacterial activity against AcrB-deficient Escherichia coli BW25113 assessed as chloramphenicol MIC at 512 ug/ml after 18 hrs by checkerboard method (reference value: 2 ug/ml); type: functional; conditions: BW25113, 18 h
Escherichia coli [10] = assay: Potentiation of tetraphenyl phosphonium chloride-induced antibacterial activity against AcrB-deficient Escherichia coli BW25113 assessed as tetraphenyl phosphonium chloride MIC at 512 ug/ml after 18 hrs by checkerboard method (reference value: 64 ug/ml); type: functional; conditions: BW25113, 18 h
Escherichia coli [11] = assay: Potentiation of tetraphenyl phosphonium chloride-induced antibacterial activity against AcrB-deficient Escherichia coli BW25113 assessed as tetraphenyl phosphonium chloride MIC at 256 ug/ml after 18 hrs by checkerboard method (reference value: 64 ug/ml); type: functional; conditions: BW25113, 18 h
Escherichia coli [12] = assay: Effect on rifampicin-induced antibacterial activity against wild-type drug resistant Escherichia coli BW25113 assessed as rifampicin MIC at 128 ug/ml after 18 hrs by checkerboard method (reference value: 16 ug/ml); type: functional; conditions: BW25113, 18 h
Escherichia coli BW25113 [13] = assay: Inhibition of AcrB in wild-type drug resistant Escherichia coli BW25113 assessed as potentiation of tetraphenyl phosphonium chloride-induced antibacterial activity by measuring tetraphenyl phosphonium chloride MIC at 512 ug/ml after 18 hrs by checkerboard method (reference value: 1024 ug/ml)
Escherichia coli BW25113 [14] = assay: Inhibition of AcrB in wild-type drug resistant Escherichia coli BW25113 assessed as potentiation of erythromycin-induced antibacterial activity by measuring erythromycin MIC at 128 ug/ml after 18 hrs by checkerboard method (reference value: 128 ug/ml)
Escherichia coli [15] = assay: Potentiation of chloramphenicol-induced antibacterial activity against AcrB-deficient Escherichia coli BW25113 assessed as chloramphenicol MIC at 128 ug/ml after 18 hrs by checkerboard method (reference value: 2 ug/ml); type: functional; conditions: BW25113, 18 h
Escherichia coli [16] = assay: Potentiation of erythromycin-induced antibacterial activity against AcrB-deficient Escherichia coli BW25113 assessed as erythromycin MIC at 128 ug/ml after 18 hrs by checkerboard method (reference value: 16 ug/ml); type: functional; conditions: BW25113, 18 h
Escherichia coli BW25113 [17] = assay: Inhibition of AcrB in wild-type drug resistant Escherichia coli BW25113 assessed as potentiation of erythromycin-induced antibacterial activity by measuring erythromycin MIC at 512 ug/ml after 18 hrs by checkerboard method (reference value: 128 ug/ml)
Escherichia coli BW25113 [18] = assay: Inhibition of AcrB in drug resistant Escherichia coli BW25113 assessed as reduction in nile red efflux at 100 uM pretreated for 15 mins followed by nile red addition measured after 3 hrs for 200 secs in presence of glucose by fluorimetric method
Escherichia coli BW25113 [19] = assay: Inhibition of AcrB in wild-type drug resistant Escherichia coli BW25113 assessed as potentiation of erythromycin-induced antibacterial activity by measuring erythromycin MIC at 256 ug/ml after 18 hrs by checkerboard method (reference value: 128 ug/ml)
Escherichia coli BW25113 [20] = assay: Inhibition of […] in drug resistant Escherichia coli BW25113 assessed as increase in outer membrane permeability by measuring increase nitrocefin hydrolysis at 512 ug/ml measured over 30 mins in presence of CCCP by spectrophotometric method
Escherichia coli [21] = assay: Disruption of inner membrane potential in drug resistant Escherichia coli BW25113 at 512 ug/ml incubated for 10 mins measured for 60 secs by DiOC2(3) dye based fluorimetric method; type: functional
Escherichia coli BW25113 [22] = assay: Inhibition of AcrB in wild-type drug resistant Escherichia coli BW25113 assessed as potentiation of chloramphenicol-induced antibacterial activity by measuring FICI at 128 to 512 ug/ml after 18 hrs by checkerboard method
Escherichia coli BW25113 [23] = assay: Inhibition of AcrB in wild-type drug resistant Escherichia coli BW25113 assessed as potentiation of chloramphenicol-induced antibacterial activity by measuring chloramphenicol MIC at 128 ug/ml after 18 hrs by checkerboard method (reference value: 8 ug/ml)
Escherichia coli BW25113 [24] = assay: Inhibition of AcrB in wild-type drug resistant Escherichia coli BW25113 assessed as reduction in nile red efflux at 50 uM pretreated for 15 mins followed by nile red addition measured after 3 hrs for 200 secs in presence of glucose by fluorimetric method
Escherichia coli [25] = assay: Effect on rifampicin-induced antibacterial activity against wild-type drug resistant Escherichia coli BW25113 assessed as rifampicin MIC at 512 ug/ml after 18 hrs by checkerboard method (reference value: 16 ug/ml); type: functional; conditions: BW25113, 18 h
Escherichia coli [26] = assay: Potentiation of erythromycin-induced antibacterial activity against AcrB-deficient Escherichia coli BW25113 assessed as erythromycin MIC at 512 ug/ml after 18 hrs by checkerboard method (reference value: 16 ug/ml); type: functional; conditions: BW25113, 18 h
Escherichia coli BW25113 [27] = assay: Inhibition of AcrB in wild-type drug resistant Escherichia coli BW25113 assessed as potentiation of tetraphenyl phosphonium chloride-induced antibacterial activity by measuring FICI at 128 to 512 ug/ml after 18 hrs by checkerboard method
Escherichia coli BW25113 [28] = assay: Inhibition of AcrB in wild-type drug resistant Escherichia coli BW25113 assessed as potentiation of chloramphenicol-induced antibacterial activity by measuring chloramphenicol MIC at 256 ug/ml after 18 hrs by checkerboard method (reference value: 8 ug/ml)
Escherichia coli BW25113 [29] = assay: Inhibition of AcrB in wild-type drug resistant Escherichia coli BW25113 assessed as potentiation of erythromycin-induced antibacterial activity by measuring FICI at 128 to 512 ug/ml after 18 hrs by checkerboard method
Escherichia coli BW25113 [30] = assay: Inhibition of AcrB in wild-type drug resistant Escherichia coli BW25113 assessed as potentiation of chloramphenicol-induced antibacterial activity by measuring chloramphenicol MIC at 512 ug/ml after 18 hrs by checkerboard method (reference value: 8 ug/ml)
Escherichia coli BW25113 [31] = assay: Inhibition of AcrB in wild-type drug resistant Escherichia coli BW25113 assessed as potentiation of tetraphenyl phosphonium chloride-induced antibacterial activity by measuring tetraphenyl phosphonium chloride MIC at 256 ug/ml after 18 hrs by checkerboard method (reference value: 1024 ug/ml)
Escherichia coli [32] = assay: Potentiation of erythromycin-induced antibacterial activity against AcrB-deficient Escherichia coli BW25113 assessed as erythromycin MIC at 256 ug/ml after 18 hrs by checkerboard method (reference value: 16 ug/ml); type: functional; conditions: BW25113, 18 h
HEK293 = assay: Cytotoxicity against HEK293 cells at 512 to 1024 ug/ml measured every 60 mins for 20 hrs by RealTime-Glo MT cell viability assay; type: cell-based; conditions: human, hek293, 20 h
HepG2 = assay: Cytotoxicity against human HepG2 cells at 512 to 1024 ug/ml measured every 60 mins for 20 hrs by RealTime-Glo MT cell viability assay; type: cell-based; conditions: hepg2, 20 h
Escherichia coli [33] = assay: Potentiation of tetraphenyl phosphonium chloride-induced antibacterial activity against AcrB-deficient Escherichia coli BW25113 assessed as tetraphenyl phosphonium chloride MIC at 128 ug/ml after 18 hrs by checkerboard method (reference value: 64 ug/ml); type: functional; conditions: BW25113, 18 h

Compound: CC(C)CCOc1cc(C(N)=O)cc2ccccc12
- MIC (Escherichia coli [1]): 16 µg/mL
- growth inhibition (GI) (Escherichia coli [2]): Non-Toxic
- growth inhibition (GI) (Escherichia coli [3]): Toxic
- MIC (Escherichia coli [4]): 16 µg/mL
- MIC (Escherichia coli [5]): 2 µg/mL
- MIC (Escherichia coli [6]): 16 µg/mL
- MIC (Escherichia coli [7]): 16 µg/mL
- MIC (Escherichia coli BW25113 [8]): 1020 µg/mL
- MIC (Escherichia coli [9]): 2 µg/mL
- MIC (Escherichia coli [10]): 64 µg/mL
- MIC (Escherichia coli [11]): 64 µg/mL
- MIC (Escherichia coli [12]): 16 µg/mL
- MIC (Escherichia coli BW25113 [13]): 128 µg/mL
- MIC (Escherichia coli BW25113 [14]): 128 µg/mL
- MIC (Escherichia coli [15]): 2 µg/mL
- MIC (Escherichia coli [16]): 16 µg/mL
- MIC (Escherichia coli BW25113 [17]): 16 µg/mL
- inhibition (Escherichia coli BW25113 [18]): Active
- MIC (Escherichia coli BW25113 [19]): 64 µg/mL
- inhibition (Escherichia coli BW25113 [20]): inactive
- Activity (Escherichia coli [21]): inactive
- fractional inhibitory concentration index (FICI) (Escherichia coli BW25113 [22]): 0.25
- MIC (Escherichia coli BW25113 [23]): 8 µg/mL
- inhibition (Escherichia coli BW25113 [24]): Active
- MIC (Escherichia coli [25]): 16 µg/mL
- MIC (Escherichia coli [26]): 16 µg/mL
- fractional inhibitory concentration index (FICI) (Escherichia coli BW25113 [27]): 0.25
- MIC (Escherichia coli BW25113 [28]): 4 µg/mL
- fractional inhibitory concentration index (FICI) (Escherichia coli BW25113 [29]): 0.25
- MIC (Escherichia coli BW25113 [30]): 2 µg/mL
- MIC (Escherichia coli BW25113 [31]): 512 µg/mL
- MIC (Escherichia coli [32]): 16 µg/mL
- Activity (HEK293): Non-Toxic
- Activity (HepG2): Non-Toxic
- MIC (Escherichia coli [33]): 64 µg/mL
